Measured values taken from patent US20250154212A1, “METHOD OF DISRUPTING MEMORY AND LIPOPEPTIDE FOR USE IN SUCH METHOD” (The Research Foundation for The State University of New York, priority 2023, published 2025).
Entries after “also recorded” stand apart in the source; their conditions may differ. Where no end group is shown, it is not given here. The star is where a group is joined. Myristoyl = CCCCCCCCCCCCCC(=O)*

Biological target: T1, KIBRA-PKMζ interaction (Homo sapiens, UniProt Q05513)
T1 construct: expressed in transfected cells; host or cells: HEK293T
T1 sequence (Q05513 1-409 isoform Q05513-2): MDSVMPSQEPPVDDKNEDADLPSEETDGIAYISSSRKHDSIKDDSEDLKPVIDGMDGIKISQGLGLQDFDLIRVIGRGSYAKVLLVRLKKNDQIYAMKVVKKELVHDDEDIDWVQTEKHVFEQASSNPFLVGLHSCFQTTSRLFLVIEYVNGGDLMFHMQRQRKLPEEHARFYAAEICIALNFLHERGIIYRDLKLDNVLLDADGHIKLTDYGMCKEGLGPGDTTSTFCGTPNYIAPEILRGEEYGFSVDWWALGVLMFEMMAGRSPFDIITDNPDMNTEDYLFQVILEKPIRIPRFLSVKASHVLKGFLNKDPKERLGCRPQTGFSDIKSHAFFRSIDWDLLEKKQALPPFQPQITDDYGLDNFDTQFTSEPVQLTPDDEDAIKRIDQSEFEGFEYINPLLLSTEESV
Test: BiFC (split-Venus) assay of KIBRA-PKMζ interaction in transfected HEK293T cells
Assay type: cell-based
Settings: for effect on KIBRA-PKMζ interaction/dimerization (BiFC): 10 μM
Description: KIBRA-PKMζ BiFC was performed as previously described (28), using pVen1-FLAG-KIBRA and pVen2-HA-PKMζ, in which PKMζ was cloned between EcoR1 and BamH1 sites. The constructs pVen1 and pVen2 encode the N-terminus (amino acids 1-154) and C-terminus (amino acids 155-238) of the Venus protein, respectively, and the Venus fragments were on the N-terminal of the fusion proteins. pVen2-HA-PKMζ[PKCι/λ-P291Q;F297S] was generated by site-directed mutagenesis using forward-cctggagAagcAAatceggatcccccggtCcctgtccgte and reverse-gacggacaggGaccgggggatccggatTTgctTctccagg primers and the QuickChange II XL Site-Directed Mutagenesis Kit (Agilent Technologies), following manufacturer's instructions. Additional pVen2-HA-PKC isoforms and pVen2-HA-CaMKIIα in the pVen2-HA vector were generated by cloning the N-terminus of the coding sequence of each kinase (table S1) to obtain an in-frame fusion at the C-terminus of the pVen2-HA. Human versions of KIBRA and kinases were used, and all PCR amplified sequences and constructs were verified by DNA sequencing.
HEK293T cells were cultured in Dulbecco's Modified Eagle's Medium supplemented with 10% heat-inactivated fetal bovine serum, 100 U/ml penicillin, […] streptomycin, 2 mM glutamine, and 10 mM HEPES in a T75 tissue culture flask with canted neck and ventilated cap. Twenty-four hours prior to transfection, 1×10^5 HEK293T cells in 1 ml of media were plated on poly-D-lysine-treated coverslips in 24-well plates. One hour prior to transfection, 0.5 ml of the media was removed from each well, and ζ-stat or K-ZAP was added to the media that had been removed. The remaining media in each well was then discarded and substituted with the 0.5 ml pre-conditioned media containing ζ-stat or K-ZAP at designated concentrations. For transfection a total of 50 ng of DNA was delivered to each well using Lipofectamine 3000 (Invitrogen) and OptiMEM 1× reduced serum medium (Invitrogen) at a plasmid-to-plasmid ratio of 1:1. The amount of transfected DNA was optimized to produce relatively low concentrations of proteins during overexpression. […]

Row | Compound | effect on KIBRA-PKMζ interaction/dimerization (BiFC) (listed as z-stat) | IC50 (dose-response curve, n's=4, read-out: IC50 for inhibition of KIBRA-PKMζ interaction (BiFC)) | effect on KIBRA-PKMζ interaction/dimerization (BiFC)
1 | O=S(=O)(O)c1cc(O)c2c(S(=O)(=O)O)cc(S(=O)(=O)O)cc2c1 [ζ-stat, 1-naphthol-3,6,8-trisulphonic acid] | inhibits KIBRA interaction with PKMz; also recorded: decreases BIFC | ~1000 nM | 
2 | myr-N-FVRNSLERRSVRMKRPS-C (Myristoyl-FVRNSLERRSVRMKRPS) [K-ZAP] |  |  | inhibits PKMz-KIBRA dimerization
